Columns and labels:
[1] = Dynamic vapor sorption (DVS): sorption and desorption of moisture; format: physicochemical
Description: Investigations on the sorption and desorption of moisture (dynamic vapor sorption, DVS): DVS measurements were carried out on an apparatus of the type DVS 1000 from Porotec. The evaluation of the measurements was carried out using software from Surface Measurement Systems. At a temperature between 23° C. and 26° C., starting from a relative humidity of 50%, within 240 minutes the relative humidity first increased to 90% and then fell to 0%. This cycle was repeated a second time. The DVS charts shown are isothermal recordings (plots) of the change in the mass in % (change in mass—dry) as a function of the desired relative humidity in % (target RH). Correspondingly, the axes of the graphs are marked by ΔM [%] and RH [%]. The measurement curves of the first sorption are designated by 1-S, the subsequent first desorption by 1-D, the second sorption by 2-S and the second desorption by 2-D. Advantageously, mass changes between the sorption and desorption phase are as low as possible.

[2] = Release in artificial intestinal juice; format: physicochemical; settings: for release rate compared to the hydrochloride salt: in artificial intestinal juice
Description: Investigations on release were carried out in a Sotax AT7 smart release apparatus with UV measurement (Perkin Elmer photometer).
A vessel with Wood apparatus was used (for intrinsic release).
A pressing of 0.5 cm^2 surface area (diameter 8 mm) was produced with a force of 200 N using approximately 100 mg of active ingredient.
Release was carried out in a release medium, which is composed as described below: • Intestinal juice without pancreas powder, pH 6.8 (analogous to Ph. Eur.); 250.0 ml 6.8 g of potassium dihydrogenphosphate R+0.896 g of NaOH+water to 1000.0 ml.
Release was carried out in a release volume of in each case 500±5 ml at a temperature of the release medium of 37±1° C. with a stirring speed of 100±5 rpm.
The content determination was carried out by means of spectroscopic methods (UV spectroscopy, wavelength: 271 nm, cuvette: 10 mm). Sample taking was carried out manually.
In this release experiment, the individual compounds were placed in a permeable bag in an amount in each case calculated on 100 mg of the free base.
The results, expressed in percent of the substance released, are reproduced in the following tables. In this case, the compounds denote: HCl: hydrochloride; A: cinnamate; B: palmitate; C: decanoate; E: hemi-fumarate and F: hemi-sebacate.

In the case of `CN(C)CC1CCCCC1(O)c1cccc(O)c1.CN(C)CC1CCCCC1(O)c1cccc(O)c1.O=C(O)CCCCCCCCC(=O)O` (centres unmarked) [hemi-sebacate], the “ΔM Desorption” value ([1]; DVS 1st cycle, RH 0.0%) is reported as 0.0000%, the “ΔM Desorption” value ([1]; DVS 1st cycle, RH 10.0%) is reported as 0.0235% and the “ΔM Desorption” value ([1]; DVS 1st cycle, RH 20.0%) is reported as 0.0308%. For the same compound, the “ΔM Desorption” value ([1]; DVS 1st cycle, RH 30.0%) was 0.0323%, the “ΔM Desorption” value ([1]; DVS 1st cycle, RH 40.0%) was 0.0338% and the “ΔM Desorption” value ([1]; DVS 1st cycle, RH 50.0%) was 0.0323%. The “ΔM Hysteresis” value ([1]; DVS 1st cycle, RH 50.0%) was −0.0382%, the “ΔM Sorption” value ([1]; DVS 1st cycle, RH 50.0%) was 0.0704% and the “ΔM Desorption” value ([1]; DVS 1st cycle, RH 60.0%) was 0.0293%. The “ΔM Hysteresis” value ([1]; DVS 1st cycle, RH 60.0%) was −0.0396%, the “ΔM Sorption” value ([1]; DVS 1st cycle, RH 60.0%) was 0.0690% and the “ΔM Desorption” value ([1]; DVS 1st cycle, RH 70.0%) was 0.0220%. For the same compound, the “ΔM Hysteresis” value ([1]; DVS 1st cycle, RH 70.0%) was −0.0132%, the “ΔM Sorption” value ([1]; DVS 1st cycle, RH 70.0%) was 0.0352% and the “ΔM Desorption” value ([1]; DVS 1st cycle, RH 80.0%) was 0.0088%. For the same compound, the “ΔM Hysteresis” value ([1]; DVS 1st cycle, RH 80.0%) was 0.0205%, the “ΔM Sorption” value ([1]; DVS 1st cycle, RH 80.0%) was −0.0117% and the “ΔM Desorption” value ([1]; DVS 1st cycle, RH 90.0%) was −0.0499%. The “ΔM Sorption” value ([1]; DVS 1st cycle, RH 90.0%) was −0.0499%, the “ΔM Desorption” value ([1]; DVS 2nd cycle, RH 0.0%) was 0.1585% and the “ΔM Sorption” value ([1]; DVS 2nd cycle, RH 0.0%) was 0.0000%. The “ΔM Desorption” value ([1]; DVS 2nd cycle, RH 10.0%) was 0.1790%, the “ΔM Hysteresis” value ([1]; DVS 2nd cycle, RH 10.0%) was 0.1438% and the “ΔM Sorption” value ([1]; DVS 2nd cycle, RH 10.0%) was 0.0352%. For the same compound, the “ΔM Desorption” value ([1]; DVS 2nd cycle, RH 20.0%) was 0.1834%, the “ΔM Hysteresis” value ([1]; DVS 2nd cycle, RH 20.0%) was 0.1291% and the “ΔM Sorption” value ([1]; DVS 2nd cycle, RH 20.0%) was 0.0543%. The “ΔM Desorption” value ([1]; DVS 2nd cycle, RH 30.0%) was 0.1878%, the “ΔM Hysteresis” value ([1]; DVS 2nd cycle, RH 30.0%) was 0.1174% and the “ΔM Sorption” value ([1]; DVS 2nd cycle, RH 30.0%) was 0.0704%. The “ΔM Desorption” value ([1]; DVS 2nd cycle, RH 40.0%) was 0.1922%, the “ΔM Hysteresis” value ([1]; DVS 2nd cycle, RH 40.0%) was 0.1042% and the “ΔM Sorption” value ([1]; DVS 2nd cycle, RH 40.0%) was 0.0880%. The “ΔM Desorption” value ([1]; DVS 2nd cycle, RH 50.0%) was 0.1849%, the “ΔM Hysteresis” value ([1]; DVS 2nd cycle, RH 50.0%) was 0.0880% and the “ΔM Sorption” value ([1]; DVS 2nd cycle, RH 50.0%) was 0.0968%. The “ΔM Desorption” value ([1]; DVS 2nd cycle, RH 60.0%) was 0.1761%, the “ΔM Hysteresis” value ([1]; DVS 2nd cycle, RH 60.0%) was 0.0704% and the “ΔM Sorption” value ([1]; DVS 2nd cycle, RH 60.0%) was 0.1057%. For the same compound, the “ΔM Desorption” value ([1]; DVS 2nd cycle, RH 70.0%) was 0.1629%, the “ΔM Hysteresis” value ([1]; DVS 2nd cycle, RH 70.0%) was 0.0719% and the “ΔM Sorption” value ([1]; DVS 2nd cycle, RH 70.0%) was 0.0910%. For the same compound, the “ΔM Desorption” value ([1]; DVS 2nd cycle, RH 80.0%) was 0.1350%, the “ΔM Hysteresis” value ([1]; DVS 2nd cycle, RH 80.0%) was 0.0616% and the “ΔM Sorption” value ([1]; DVS 2nd cycle, RH 80.0%) was 0.0734%. The “ΔM Desorption” value ([1]; DVS 2nd cycle, RH 90.0%) was 0.0484%, the “ΔM Sorption” value ([1]; DVS 2nd cycle, RH 90.0%) was 0.0484% and the “ΔM Sorption” value ([1]; DVS 3rd cycle (partial), RH 0.0%) was 0.1585%. The “ΔM Sorption” value ([1]; DVS 3rd cycle (partial), RH 10.0%) was 0.1937%, the “ΔM Sorption” value ([1]; DVS 3rd cycle (partial), RH 20.0%) was 0.2113% and the “ΔM Sorption” value ([1]; DVS 3rd cycle (partial), RH 30.0%) was 0.2245%. The “ΔM Sorption” value ([1]; DVS 3rd cycle (partial), RH 40.0%) was 0.2377%, the “ΔM Sorption” value ([1]; DVS 3rd cycle (partial), RH 50.0%) was 0.2465% and the “release rate compared to the hydrochloride salt” value [2] was “decreased release rates compared to the hydrochloride salt”.
In the case of octanoate, the “release rate compared to the hydrochloride salt” value [2] is reported as “decreased release rates compared to the hydrochloride salt”.
With palmitate the “ΔM Desorption” value ([1]; 1st cycle, RH 0.0 %) was 0.0000%, the “ΔM Desorption” value ([1]; 1st cycle, RH 10.0 %) was 0.0083% and the “ΔM Desorption” value ([1]; 1st cycle, RH 20.0 %) was 0.0148%. For the same compound, the “ΔM Desorption” value ([1]; 1st cycle, RH 30.0 %) was 0.0234%, the “ΔM Desorption” value ([1]; 1st cycle, RH 40.0 %) was 0.0353% and the “ΔM Desorption” value ([1]; 1st cycle, RH 50.0 %) was 0.0472%. The “ΔM Hysteresis” value ([1]; 1st cycle, RH 50.0 %) was 0.0027%, the “ΔM Sorption” value ([1]; 1st cycle, RH 50.0 %) was 0.0445% and the “ΔM Desorption” value ([1]; 1st cycle, RH 60.0 %) was 0.0896%. For the same compound, the “ΔM Hysteresis” value ([1]; 1st cycle, RH 60.0 %) was 0.0374%, the “ΔM Sorption” value ([1]; 1st cycle, RH 60.0 %) was 0.0522% and the “ΔM Desorption” value ([1]; 1st cycle, RH 70.0 %) was 0.1139%. The “ΔM Hysteresis” value ([1]; 1st cycle, RH 70.0 %) was 0.0412%, the “ΔM Sorption” value ([1]; 1st cycle, RH 70.0 %) was 0.0727% and the “ΔM Desorption” value ([1]; 1st cycle, RH 80.0 %) was 0.1406%. The “ΔM Hysteresis” value ([1]; 1st cycle, RH 80.0 %) was 0.0347%, the “ΔM Sorption” value ([1]; 1st cycle, RH 80.0 %) was 0.1059% and the “ΔM Desorption” value ([1]; 1st cycle, RH 90.0 %) was 0.1531%. The “ΔM Sorption” value ([1]; 1st cycle, RH 90.0 %) was 0.1531%, the “ΔM Desorption” value ([1]; 2nd cycle, RH 0.0 %) was 0.0172% and the “ΔM Sorption” value ([1]; 2nd cycle, RH 0.0 %) was 0.0000%. The “ΔM Desorption” value ([1]; 2nd cycle, RH 10.0 %) was 0.0303%, the “ΔM Hysteresis” value ([1]; 2nd cycle, RH 10.0 %) was 0.0202% and the “ΔM Sorption” value ([1]; 2nd cycle, RH 10.0 %) was 0.0101%. The “ΔM Desorption” value ([1]; 2nd cycle, RH 20.0 %) was 0.0421%, the “ΔM Hysteresis” value ([1]; 2nd cycle, RH 20.0 %) was 0.0211% and the “ΔM Sorption” value ([1]; 2nd cycle, RH 20.0 %) was 0.0211%. The “ΔM Desorption” value ([1]; 2nd cycle, RH 30.0 %) was 0.0552%, the “ΔM Hysteresis” value ([1]; 2nd cycle, RH 30.0 %) was 0.0225% and the “ΔM Sorption” value ([1]; 2nd cycle, RH 30.0 %) was 0.0326%. For the same compound, the “ΔM Desorption” value ([1]; 2nd cycle, RH 40.0 %) was 0.0679%, the “ΔM Hysteresis” value ([1]; 2nd cycle, RH 40.0 %) was 0.0237% and the “ΔM Sorption” value ([1]; 2nd cycle, RH 40.0 %) was 0.0442%. The “ΔM Desorption” value ([1]; 2nd cycle, RH 50.0 %) was 0.0837%, the “ΔM Hysteresis” value ([1]; 2nd cycle, RH 50.0 %) was 0.0234% and the “ΔM Sorption” value ([1]; 2nd cycle, RH 50.0 %) was 0.0602%. The “ΔM Desorption” value ([1]; 2nd cycle, RH 60.0 %) was 0.1344%, the “ΔM Hysteresis” value ([1]; 2nd cycle, RH 60.0 %) was 0.0573% and the “ΔM Sorption” value ([1]; 2nd cycle, RH 60.0 %) was 0.0771%. The “ΔM Desorption” value ([1]; 2nd cycle, RH 70.0 %) was 0.1640%, the “ΔM Hysteresis” value ([1]; 2nd cycle, RH 70.0 %) was 0.0739% and the “ΔM Sorption” value ([1]; 2nd cycle, RH 70.0 %) was 0.0902%. For the same compound, the “ΔM Desorption” value ([1]; 2nd cycle, RH 80.0 %) was 0.1827%, the “ΔM Hysteresis” value ([1]; 2nd cycle, RH 80.0 %) was 0.0495% and the “ΔM Sorption” value ([1]; 2nd cycle, RH 80.0 %) was 0.1332%. The “ΔM Desorption” value ([1]; 2nd cycle, RH 90.0 %) was 0.1771%, the “ΔM Sorption” value ([1]; 2nd cycle, RH 90.0 %) was 0.1771% and the “ΔM Sorption” value ([1]; 3rd cycle, RH 0.0 %) was 0.0172%. For the same compound, the “ΔM Sorption” value ([1]; 3rd cycle, RH 10.0 %) was 0.0231%, the “ΔM Sorption” value ([1]; 3rd cycle, RH 20.0 %) was 0.0306% and the “ΔM Sorption” value ([1]; 3rd cycle, RH 30.0 %) was 0.0392%. For the same compound, the “ΔM Sorption” value ([1]; 3rd cycle, RH 40.0 %) was 0.0498%, the “ΔM Sorption” value ([1]; 3rd cycle, RH 50.0 %) was 0.0650% and the “release behaviour in artificial intestinal juice” value ([2]; Experiments B-1 and B-2) was “more intensely prolonged release”. The “release rate compared to the hydrochloride salt” value [2] was “decreased release rates compared to the hydrochloride salt”.

Reference: patent US20110251286A1, “Crystalline salts and/or co-crystals of O-desmethyltramadol” (GRUENENTHAL GmbH, priority 2010, published 2011)
